# Data taken from patent publication US6737383B1, “Herbicidal oxadiazolidines” (priority 1999, dated 2004).
# Assays:
# giant foxtail = test: Test B pre/postemergence giant foxtail; assay type: in vivo, Setaria faberii; settings: for Giant foxtail plant response rating (0 to 10 scale): 0 is no effect
# Method in brief: (§1)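 Herbicidal effect was estimated by eye on a ten-point control scale after plants spent twelve to sixteen days in a greenhouse following soil or foliar treatment. Foliar sprays targeted plants at one to four leaves; all doses were formulated in a non-phytotoxic solvent with surfactant.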
# morningglory = test: Test B pre/postemergence morningglory; assay type: in vivo, Ipomoea hederacea; settings: for Morningglory plant response rating (0 to 10 scale): 0 is no effect
# Method in brief: as §1
# rice = test: Test B flood test rice; assay type: in vivo, Oryza sativa
# Method in brief: (§2)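 Plants were grown to the 2-leaf stage before treatment with test chemical, then held in a greenhouse for twelve to sixteen days. Injury was visually rated against untreated controls on a 0–10 scale, where 0 is no effect and 10 is complete control.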
# duck salad = test: Test B flood test duck salad; assay type: in vivo, Heteranthera limosa
# Method in brief: as §2
# winter wheat [1] = test: Test E winter wheat; assay type: in vivo, Triticum aestivum; settings: Postemergence; for Plant response rating, Wheat (winter): 0 to 100 scale
# Method in brief: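 Postemergence: spray at 1–4 leaf stage, soil 60:40 sandy loam:potting mix; solvent + surfactant formulation; greenhouse 21–28 d; visual injury vs untreated controls.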
# blackgrass = test: Test E blackgrass; assay type: in vivo, Alopecurus myosuroides; settings: Preemergence; for Blackgrass plant response rating (0 to 100 scale): Rate 250 g/ha; for Plant response rating, Blackgrass: 0 to 100 scale where 0 is no effect and 100 is complete control
# green foxtail = test: Test E green foxtail; assay type: in vivo, Setaria viridis; settings: Preemergence; for Green foxtail plant response rating (0 to 100 scale): Rate 250 g/ha; for Plant response rating, Green foxtail: 0 to 100 scale where 0 is no effect and 100 is complete control
# Italian ryegrass = test: Test E Italian ryegrass; assay type: in vivo, Lolium multiflorum; settings: Preemergence; for I. Ryegrass plant response rating (0 to 100 scale): Rate 250 g/ha; for Plant response rating, I. Ryegrass: 0 to 100 scale where 0 is no effect and 100 is complete control
# winter wheat [2] = test: Test E winter wheat; assay type: in vivo, Triticum aestivum; settings: Preemergence; for Wheat (winter) plant response rating (0 to 100 scale): Rate 250 g/ha; for Plant response rating, Wheat (winter): 0 to 100 scale where 0 is no effect and 100 is complete control
# wild oat = test: Test E wild oat; assay type: in vivo, Avena fatua; settings: Preemergence; for Wild oat plant response rating (0 to 100 scale): Rate 250 g/ha; for Plant response rating, Wild oat: 0 to 100 scale where 0 is no effect and 100 is complete control
# winter barley = test: Test E winter barley; assay type: in vivo, Hordeum vulgare; settings: Preemergence; for Barley (winter) plant response rating (0 to 100 scale): Rate 250 g/ha; for Plant response rating, Barley (winter): 0 to 100 scale where 0 is no effect and 100 is complete control
# [3] = Preemergence, Rate 62 g/ha, scale of 0 to 10 where 0 is no effect and 10 is complete control
# [4] = Preemergence, Rate 125 g/ha, 10 is complete control
# [5] = Preemergence, Rate 250 g/ha, scale 0 to 10, 0 is no effect, 10 is complete control
# [6] = Preemergence, Rate 500 g/ha, scale of 0 to 10 where 0 is no effect and 10 is complete control
# [7] = Rate 62 g/ha, Postemergence, scale of 0 to 10 where 0 is no effect and 10 is complete control
# [8] = Rate 125 g/ha, Postemergence, scale 0 to 10
# [9] = Rate 500 g/ha, Postemergence, scale 0 to 10
# [10] = Rate 62 g/ha, headed Pre-emergence (flood test species), scale 0 to 10 (0 no effect, 10 complete control)
# [11] = Rate 125 g/ha, Pre-emergence, flood test species, scale 0 to 10 where 0 is no effect and 10 is complete control
# [12] = Rate 250 g/ha, Pre-emergence, flood-test species, scale 0 to 10, 0 is no effect, 10 is complete control
# [13] = Rate 500 g/ha, Pre-emergence, flood test species, scale 0 to 10 (0 no effect, 10 complete control)
# [14] = Rate 1000 g/ha, 0 is no effect and 100 is complete control
# [15] = Rate 500 g/ha, 0 is no effect, 100 is complete control
# [16] = Postemergence, Rate 125 g/ha, scale of 0 to 10 where 0 is no effect and 10 is complete control
# [17] = Preemergence, Rate 500 g/ha, scale 0 to 10 (0 no effect, 10 complete control)
# [18] = Rate 250 g/ha, Postemergence, scale 0 to 10, 0 is no effect, 10 is complete control
# [19] = Postemergence (flood test species), Rate 125 g/ha, scale of 0 to 10 where 0 is no effect and 10 is complete control
# [20] = Rate 62 g/ha, Postemergence section, flood test species, scale of 0 to 10 where 0 is no effect and 10 is complete control
# [21] = Rate 250 g/ha, Postemergence (flood test), scale 0 to 10, 0 is no effect, 10 is complete control
# [22] = Rate 500 g/ha, listed under Postemergence (flood test species), scale 0 to 10
compound,measurement,setting,value
CC(C)N(C(=O)n1oc(=O)n(Cc2ccco2)c1=O)c1ccc(F)cc1 [Compound 207],Giant foxtail plant response rating,giant foxtail; [3],3
same,Giant foxtail plant response rating (0 to 10 scale),giant foxtail; [4],6
same,Giant foxtail plant response rating,giant foxtail; [5],9
same,"Plant response rating, Giant foxtail",giant foxtail; [6],10
same,Giant foxtail plant response rating,giant foxtail; [7],0
same,Giant foxtail plant response rating,giant foxtail; [8],0
same,"Plant response rating (0 to 10; 0 is no effect, 10 is complete control), Giant foxtail","giant foxtail; Rate 250 g/ha, Postemergence",1
same,Giant foxtail plant response rating,giant foxtail; [9],2
same,Morningglory plant response rating,morningglory; [3],0
same,Morningglory plant response rating (0 to 10 scale),morningglory; [4],0
same,Morningglory plant response rating,morningglory; [5],0
same,"Plant response rating, Morningglory",morningglory; [6],0
same,Morningglory plant response rating,morningglory; [7],0
same,Morningglory plant response rating,morningglory; [8],2
same,"Plant response rating (0 to 10; 0 is no effect, 10 is complete control), Morningglory","morningglory; Rate 250 g/ha, Postemergence",2
same,Morningglory plant response rating,morningglory; [9],3
same,Rice plant response rating,rice; [10],0
same,Rice plant response rating,rice; [11],0
same,Rice plant response rating,rice; [12],0
same,Rice plant response rating,rice; [13],0
same,Ducksalad plant response rating,duck salad; [10],0
same,Ducksalad plant response rating,duck salad; [11],0
same,Ducksalad plant response rating,duck salad; [12],0
same,Ducksalad plant response rating,duck salad; [13],2
same,"Plant response rating, Wheat (winter)",winter wheat [1]; [14],50
same,"Plant response rating, Wheat (winter)",winter wheat [1]; [15],30
same,Blackgrass plant response rating (0 to 100 scale),blackgrass,30
same,"Plant response rating, Blackgrass",blackgrass; Rate 500 g/ha,80
same,"Plant response rating, Blackgrass",blackgrass; Rate 1000 g/ha,85
same,Green foxtail plant response rating (0 to 100 scale),green foxtail,80
same,"Plant response rating, Green foxtail",green foxtail; Rate 500 g/ha,90
same,"Plant response rating, Green foxtail",green foxtail; Rate 1000 g/ha,100
same,I. Ryegrass plant response rating (0 to 100 scale),Italian ryegrass,40
same,"Plant response rating, I. Ryegrass",Italian ryegrass; Rate 500 g/ha,55
same,"Plant response rating, I. Ryegrass",Italian ryegrass; Rate 1000 g/ha,30
same,Wheat (winter) plant response rating (0 to 100 scale),winter wheat [2],60
same,"Plant response rating, Wheat (winter)",winter wheat [2]; Rate 500 g/ha,70
same,"Plant response rating, Wheat (winter)",winter wheat [2]; Rate 1000 g/ha,70
same,Wild oat plant response rating (0 to 100 scale),wild oat,65
same,"Plant response rating, Wild oat",wild oat; Rate 500 g/ha,70
same,"Plant response rating, Wild oat",wild oat; Rate 1000 g/ha,70
same,Barley (winter) plant response rating (0 to 100 scale),winter barley,65
same,"Plant response rating, Barley (winter)",winter barley; Rate 500 g/ha,70
same,"Plant response rating, Barley (winter)",winter barley; Rate 1000 g/ha,80
CC(C)Cn1c(=O)on(C(=O)N(c2ccc(F)cc2)C(C)C)c1=O [Compound 169],Giant foxtail plant response rating,giant foxtail; [16],2
same,Giant foxtail plant response rating,giant foxtail; [3],10
same,Giant foxtail plant response rating (0 to 10 scale),giant foxtail; [4],10
same,Giant foxtail plant response rating,giant foxtail; [5],10
same,Giant foxtail plant response rating,giant foxtail; [17],10
same,Giant foxtail plant response rating,giant foxtail; [7],0
same,"Plant response rating, Giant foxtail",giant foxtail; [18],6
same,Giant foxtail plant response rating,giant foxtail; [9],9
same,Morningglory plant response rating,morningglory; [16],1
same,Morningglory plant response rating,morningglory; [3],0
same,Morningglory plant response rating (0 to 10 scale),morningglory; [4],0
same,Morningglory plant response rating,morningglory; [5],0
same,Morningglory plant response rating,morningglory; [17],0
same,Morningglory plant response rating,morningglory; [7],1
same,"Plant response rating, Morningglory",morningglory; [18],5
same,Morningglory plant response rating,morningglory; [9],7
same,Rice plant response rating,rice; [19],0
same,Rice plant response rating,rice; [20],0
same,"Plant response rating, Rice",rice; [21],0
same,Rice plant response rating,rice; [22],0
same,Ducksalad plant response rating,duck salad; [19],0
same,Ducksalad plant response rating,duck salad; [20],0
same,"Plant response rating, Ducksalad",duck salad; [21],0
same,Ducksalad plant response rating,duck salad; [22],0
same,"Plant response rating, Wheat (winter)",winter wheat [1]; [14],65
same,Wheat (winter) plant response rating,"winter wheat [1]; Rate 250 g/ha, 0 to 100 scale where 0 is no effect and 100 is complete control",40
same,"Plant response rating, Wheat (winter)",winter wheat [1]; [15],50
same,Blackgrass plant response rating (0 to 100 scale),blackgrass,30
same,"Plant response rating, Blackgrass",blackgrass; Rate 500 g/ha,60
same,"Plant response rating, Blackgrass",blackgrass; Rate 1000 g/ha,55
same,Green foxtail plant response rating (0 to 100 scale),green foxtail,60
same,"Plant response rating, Green foxtail",green foxtail; Rate 500 g/ha,70
same,"Plant response rating, Green foxtail",green foxtail; Rate 1000 g/ha,95
same,I. Ryegrass plant response rating (0 to 100 scale),Italian ryegrass,75
same,"Plant response rating, I. Ryegrass",Italian ryegrass; Rate 500 g/ha,80
same,"Plant response rating, I. Ryegrass",Italian ryegrass; Rate 1000 g/ha,90
same,Wheat (winter) plant response rating (0 to 100 scale),winter wheat [2],10
same,"Plant response rating, Wheat (winter)",winter wheat [2]; Rate 500 g/ha,40
same,"Plant response rating, Wheat (winter)",winter wheat [2]; Rate 1000 g/ha,65
same,Wild oat plant response rating (0 to 100 scale),wild oat,50
same,"Plant response rating, Wild oat",wild oat; Rate 500 g/ha,30
same,"Plant response rating, Wild oat",wild oat; Rate 1000 g/ha,40
same,Barley (winter) plant response rating (0 to 100 scale),winter barley,30
same,"Plant response rating, Barley (winter)",winter barley; Rate 500 g/ha,30
same,"Plant response rating, Barley (winter)",winter barley; Rate 1000 g/ha,50
